Source: PMC8658889, “Seriniquinones as Therapeutic Leads for Treatment of BRAF and NRAS Mutant Melanomas” (Molecules, 2021)
Like-named read-outs stand apart in the source and are kept apart here.

What was measured:
SK-MEL-147 [1] = experiment: Trypan blue exclusion test (cell viability); type: cell-based, Human; settings: for number of viable cells: SK-MEL-147, 24-h treatment, 1.0, 2.5 or 5.0 µM
Protocol: (§1) Fifty thousand (5 × 10^4) cells in 1 mL of media were seeded in cell culture dishes and, 24 h later, treated with SQ1 or SQ2 (1.0, 2.5, and 5.0 µM), vehicle (DMSO) and doxorubicin (DOX, positive control) for 24 h. Cells were detached, stained with Trypan Blue solution 0.4% (1:10, v/v; Sigma-Aldrich, St. Louis, MO, USA) and counted in a Neubauer chamber under optical microscopy to determine concentrations of viable and non-viable cells.

SK-MEL-28 = experiment: Trypan blue exclusion test (cell viability); type: cell-based, Human; settings: SK-MEL-28, 24-h treatment, 1.0, 2.5 or 5.0 µM
Protocol: as §1

[2] = set-up: method as in PMID 30783501; settings: organic and aqueous media, cited from earlier work
HCT-116 = experiment: MTT cytotoxicity assay; type: cell-based, Human; settings: for IC50: Homo sapiens, HCT-116, 72 h treatment, MTT
Description: (§2) Human cell lines were used throughout this program. SK-MEL-19 (melanoma BRAF^V600E, NRAS^WT), SK-MEL-28 (melanoma BRAF^V600E, NRAS^WT), SK-MEL-147 (melanoma BRAF^WT, NRAS^Q61R), MRC-5 (fibroblasts), and primary fibroblast (FDH) were kindly provided by Professor Glaucia Santelli (University of São Paulo, Brazil). MCF7 (breast adenocarcinoma, ATCC HTB-22), and HCT-116 (colorectal carcinoma, ATCC 247) cells were obtained from American Type Culture Collection (ATCC) and deposited in the Cell Bank of Rio de Janeiro, Brazil. WM293A (metastatic melanoma BRAF^V600D, NRAS^WT), 501mel (metastatic melanoma BRAF^V600E; NRAS^G12D), and MM200 (melanoma BRAF^V600E, NRAS^WT) were kindly provided by Professor Sharon Prince, University of Cape Town, South Africa. All human melanoma and breast cell lines were cultivated with Dulbecco’s Modified Eagle Medium: Nutrient Mixture F-12 (Thermo Fisher Scientific, San Jose, CA, USA). MM200 and HCT-116 were maintained with Roswell Park Memorial Institute (RPMI) medium (Thermo Fisher Scientific, San Jose, CA, USA). Unless stated otherwise, media was supplemented with 10% fetal bovine serum (FBS) and 1% penicillin-streptomycin (Thermo Fisher Scientific, San Jose, CA, USA). Cells were incubated with 5% CO2 at 37 °C. When required, cells were detached from flask using trypsin-EDTA 0.05% (Thermo Fisher Scientific, San Jose, CA, USA).
(§3) Cytotoxic activity was evaluated by the transformation of 3-(4,5-dimethylthiazol-2-yl)-2,5-diphenyltetrazolium bromide (MTT; Thermo Fisher Scientific, San Jose, CA, USA) into formazan by viable cells. Cells were plated in a 96-well plate (1 × 10^4 cells/well) and, 24 h later, exposed to serial dilutions of the test compounds (from 0.00032 to 5.0 µM) for 24, 48, and 72 h. For each analysis, negative controls received 0.5% DMSO and positive control was delivered by doxorubicin (DOX; 0.05 to 10.0 µM). At the end of the incubation periods, the medium was replaced with fresh medium containing 0.5 mg/mL of MTT and supernatant was removed 3 h later. The plates were dried at 50 °C for 30 min and formazan was solubilized in DMSO (150 µL/well) for the absorbance measure at 570 nm on a plate reader (Thermo Fisher Scientific, San Jose, CA, USA). IC50 values (half-maximal inhibitory concentration) along with 95% CI (confidence intervals) were calculated by non-linear regression using GraphPad Prism 8.0 software (GraphPad Software, Inc., San Diego, CA, USA).

SK-MEL-19 = experiment: MTT cytotoxicity assay; type: cell-based, Human; settings: for IC50: Homo sapiens, SK-MEL19, SK-MEL-19, 72 h treatment, MTT
Description: as §2, §3

501mel = experiment: MTT cytotoxicity assay; type: cell-based, Human; settings: for IC50: Homo sapiens, 501mel, 72 h treatment, MTT
Description: as §2, §3

MRC-5 = experiment: MTT cytotoxicity assay; settings: MRC-5 non-tumor fibroblasts, 72 h treatment, MTT
SK-MEL-147 [3] = experiment: Clonogenic assay; type: cell-based, Human; settings: for decrease of cell proliferation expressed by colony area: SK-MEL-147, 24 h treatment, 6 days in drug-free medium
Protocol: (§4) […] (2.5 × 10^5) cells in 1 mL of media were seeded in cell culture dishes and, 24 h later, treated with SQ1 (0.3 µM and 0.6 µM for SK-MEL-28 and 0.9 µM and 1.8 µM for SK-MEL-147) or SQ2 (0.05 µM and 0.1 µM for SK-MEL-28 and 0.6 µM and 1.2 µM for SK-MEL-147) for 24 h. Doxorubicin (DOX; 1.4 µM for SK-MEL-28 and 0.8 µM for SK-MEL-147) was used as positive control and 0.5% DMSO as negative control.
After the cells were submitted to the treatment scheme (Section 4.6), adherent cells were collected, plated at 1 × 10^3 cell/plate on 35-mm plates and maintained in culture for 6 days in treatment-free medium. The medium was replaced every 2 days. Cells were then fixed and stained with a solution of 20% MeOH (Synth, Diadema, São Paulo, Brazil) and 0.5 g crystal violet (Sigma-Aldrich, St. Louis, MO, USA). Images were acquired using G:BOX Chemi XRQ (Syngene, Cambridge, UK) and quantified using the ImageJ program (ColonyArea; US National Institutes of Health, Bethesda, MD, USA).

DCD gene = DCD gene expression by qPCR in SK-MEL-147; type: cell-based, Human; settings: SK-MEL-147, 24 h
Protocol: as §4
Treated cells (Section 4.6) had their total RNA extracted and purified using TRIzol reagent (Thermo Fisher Scientific, San Jose, CA, USA), in accordance with the manufacturer’s recommendations. For analysis of DCD expression, purified total RNA was quantified using an Eon Microplate Spectrophotometer (BioTek Instruments, Winooski, VT, USA). Quantitative PCR (qPCR) was conducted on a Rotor Gene 6000 real-time cycler (Corbett Life Science, Sydney, NSW, Australia) using GoTaq 1-Step RT-qPCR System (Promega, Madison, WI, EUA). The cycle conditions were as follows: 45 °C for 10 min, 95 °C for 15 min and 40 cycles of 95 °C for 15 s; 60 °C for 60 s, followed by the melt. Relative expression was calculated using the comparative CT method Delta-Delta-Ct (DDCt). The primer sequences and concentrations utilized (DCD and RPLPO) can be consulted in Table S3.

[4] = HCT-116 versus FDH, 72-h IC50 ratio
[5] = HCT-116 versus MRC-5, 72-h IC50 ratio
[6] = SK-MEL-19 versus FDH, 72-h IC50 ratio
[7] = SK-MEL-19 versus MRC-5, 72-h IC50 ratio
[8] = 501mel versus FDH, 72-h IC50 ratio
[9] = 501mel versus MRC-5, 72-h IC50 ratio

SMILES	number of viable cells (SK-MEL-147 [1])	number of viable cells (SK-MEL-28)	solubility [2]	solubility ([2]; listed as seriniquinone)	Selectivity Index (SI) (HCT-116; [4])	Selectivity Index (SI) (HCT-116; [5])	IC50 (HCT-116)	IC50 (SK-MEL-19)	Selectivity Index (SI) (SK-MEL-19; [6])	Selectivity Index (SI) (SK-MEL-19; [7])	Selectivity Index (SI) (501mel; [8])	Selectivity Index (SI) (501mel; [9])	IC50 (501mel)	IC50 (MRC-5; Homo sapiens, MRC5, 72 h)	IC50 (MRC-5)	reduction of the colony levels (SK-MEL-147 [3]; SK-MEL-147, 24 h treatment at half IC50 and IC50, 6 days in drug-free medium)	decrease of cell proliferation expressed by colony area (SK-MEL-147 [3])	DCD expression relative to control (DCD gene; 1.8 µM)	proportion of non-viable cells (SK-MEL-147 [1]; SK-MEL-147, 24 h, 2.5 and 5.0 µM)	DCD overexpression relative to control (DCD gene; 1.2 µM)
O=c1c2ccccc2c(=O)c2c1sc1c(=O)c3ccccc3c(=O)c12 [SQ1, seriniquinone]	significantly reducing the number of viable cells	significantly reducing the number of viable cells	lack of solubility	poor water-solubility	1.1	0.6	1000 nM	60 nM	19.2	10.7	3.6	2.0	320 nM	640 nM	600 nM	greater than 50%	50%	twofold		
CC(C)(O)C(O)CCc1ccc2c(=O)c3sc4c(=O)c5ccccc5c(=O)c4c3c(=O)c2c1 (stereo not shown) [SQ2]	significantly reducing the number of viable cells	significantly reducing the number of viable cells	improved solubility		5.1	6.8	230 nM	40 nM	29.3	39.3	10.6	14.3	110 nM	1570 nM			50%		significantly higher	eight
